The values below come from patent US20260007675A1, “TARGETING CHROMATIN REGULATORS INHIBITS LEUKEMOGENIC GENE EXPRESSION IN NPM1 MUTANT LEUKEMIA” (MEMORIAL SLOAN KETTERING CANCER CENTER, priority 2016, published 2026).

Structures are written as SMILES.

Assay [1] deals with OCI-AML3 cells. Description: Cell viability / proliferation assay in OCI-AML3 cells. The format is cell-based, human. On the procedure: (§1) Proliferation assays were performed as previously described. Viable cell counts were determined by flow cytometry using Sytox Blue (Invitrogen) or DAPI viability stains.
Another assay has as its system HL-60 cells. Description: Cell viability / proliferation assay in HL-60 cells. The class given is cell-based, human. The procedure: as §1
Assay [2] deals with HOX, MEIS1 and FLT3 expression in OCI-AML3 cells. Description: Gene expression (quantitative PCR / RNA sequencing) in OCI-AML3 cells. The format is cell-based, human.
The test system of assay [3] is OCI-AML3 cells. The assay is described as follows: Cell differentiation by CD11b flow cytometry in OCI-AML3 cells. The format is cell-based, human. The following applies: OCI-AML3, MI-2-2 12 μM, day seven of treatment.
In assay [4] the test system is Npm1CA/+RosaSB/+ and Npm1CA/+Flt3ITD/+ leukemia cells. Description: Colony forming and liquid culture proliferation assays in murine NPM1mut leukemia cells. The class given is cell-based. Conditions: EPZ4777 10 μM. The procedure: For drug testing experiments, leukemic blasts were harvested from moribund primarily transplanted mice and cultured in vitro.
as §1
RNA and DNA purification, cDNA synthesis, quantitative real-time (qRT-) PCR, western blotting, flow cytometry, colony forming assays, viral transduction and shRNA based knock down experiments were performed using standard procedures. Primer sequences, western antibodies, and plasmids are also listed in the supplement.

Assay [5] concerns Hoxa9-Meis1 transformed cells. Description: Colony forming assay in Hoxa9-Meis1 transformed cells. The class given is cell-based, murine. Conditions: Hoxa9-Meis1 in vitro transformed cells, EPZ4777 10 μM.
Assay [6] has as its system menin, H3K4me3 and H3K79me2 at HOX and MEIS1 loci in OCI-AML3 cells. Description: Chromatin immunoprecipitation-qPCR and immunoblotting of chromatin marks in OCI-AML3 cells. The format is cell-based, human. Conditions: OCI-AML3, EPZ4777 10 μM.
Assay [7] concerns Npm1CA/+RosaSB/+ leukemia cells. The assay is described as follows: Transplantation of ex vivo pretreated Npm1CA/+RosaSB/+ leukemia cells (leukemia initiating potential). The class given is in vivo, mice. The following applies: for survival compared to vehicle control: pretreated Npm1CA/+RosaSB/+ cells, single compound. The procedure:
As HOX gene expression is associated with self-renewal properties, the inventors next determined whether pharmacological DOT1L inhibition inhibits NPM1^mut leukemia initiation in mice. Murine Npm1^CA/+Rosa^SB/+ leukemia cells were treated ex vivo with EPZ4777 or drug vehicle for 10 days and equal numbers of viable cells were transplanted into sublethally irradiated recipient animals.
Npm1^CA/+Flt3^ITD/+ and Npm1^CA/+Rosa^SB/+ cells were harvested from moribund leukemic animals and transplanted into primary and secondary recipient mice as previously described. […] All transplantation experiments with ex vivo treated cells were performed as secondary transplantations.

The next assay deals with DOT1L (Homo sapiens (Human), UniProt Q8TEK3). Conditions: cited from earlier work.
Assay [8] relates to OCI-AML3 cells. The assay is described as follows: OCI-AML3 xenotransplantation model in NSG mice. The format is in vivo. The following applies: MI-503 50 mg/kg bid IP, versus vehicle.
[9] abbreviates: OCI-AML3, 4 days of MI-2-2 treatment (12 μM).

DOT1L, sequence (Q8TEK3 whole entry): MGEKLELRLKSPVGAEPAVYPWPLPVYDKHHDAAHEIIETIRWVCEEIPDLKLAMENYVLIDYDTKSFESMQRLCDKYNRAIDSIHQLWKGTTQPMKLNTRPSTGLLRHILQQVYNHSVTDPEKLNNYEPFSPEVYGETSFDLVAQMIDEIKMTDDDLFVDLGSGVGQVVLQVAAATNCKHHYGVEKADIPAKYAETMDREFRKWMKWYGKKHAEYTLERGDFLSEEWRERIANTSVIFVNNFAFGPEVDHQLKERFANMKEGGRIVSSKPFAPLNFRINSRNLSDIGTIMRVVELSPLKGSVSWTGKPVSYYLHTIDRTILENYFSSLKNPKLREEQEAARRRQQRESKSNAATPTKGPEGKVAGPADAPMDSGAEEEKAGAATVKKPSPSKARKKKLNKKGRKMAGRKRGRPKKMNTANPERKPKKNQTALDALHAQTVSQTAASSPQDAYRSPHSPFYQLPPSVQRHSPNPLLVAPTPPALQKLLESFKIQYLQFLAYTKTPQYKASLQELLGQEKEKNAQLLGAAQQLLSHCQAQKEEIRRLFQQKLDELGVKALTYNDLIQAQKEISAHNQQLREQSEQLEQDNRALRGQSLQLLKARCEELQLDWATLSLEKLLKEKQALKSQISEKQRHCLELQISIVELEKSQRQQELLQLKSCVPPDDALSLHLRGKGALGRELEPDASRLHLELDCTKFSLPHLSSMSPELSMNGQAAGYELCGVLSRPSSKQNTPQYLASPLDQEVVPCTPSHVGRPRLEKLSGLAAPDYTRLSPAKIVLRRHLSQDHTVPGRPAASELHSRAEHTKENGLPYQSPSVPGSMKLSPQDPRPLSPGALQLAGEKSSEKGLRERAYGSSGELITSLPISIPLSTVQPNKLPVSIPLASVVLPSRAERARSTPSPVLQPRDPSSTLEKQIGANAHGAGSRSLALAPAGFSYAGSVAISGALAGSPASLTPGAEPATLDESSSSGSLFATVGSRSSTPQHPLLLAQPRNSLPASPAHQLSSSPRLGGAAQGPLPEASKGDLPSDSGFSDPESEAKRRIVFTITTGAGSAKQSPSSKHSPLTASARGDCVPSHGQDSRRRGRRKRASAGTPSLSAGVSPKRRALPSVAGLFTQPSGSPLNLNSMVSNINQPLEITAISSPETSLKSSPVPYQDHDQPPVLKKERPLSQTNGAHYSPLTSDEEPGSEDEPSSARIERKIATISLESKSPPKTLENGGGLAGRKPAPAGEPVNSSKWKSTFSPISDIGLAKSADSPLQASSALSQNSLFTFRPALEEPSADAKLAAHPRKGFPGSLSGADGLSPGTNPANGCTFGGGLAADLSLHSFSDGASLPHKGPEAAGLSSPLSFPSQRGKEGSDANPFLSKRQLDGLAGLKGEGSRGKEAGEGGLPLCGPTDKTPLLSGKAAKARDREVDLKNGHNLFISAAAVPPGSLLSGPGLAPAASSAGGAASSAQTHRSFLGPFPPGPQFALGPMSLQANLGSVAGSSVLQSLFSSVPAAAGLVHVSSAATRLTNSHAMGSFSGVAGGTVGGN

Take `CC1(C)CN=C(N2CCN(c3ncnc4sc(CC(F)(F)F)cc34)CC2)S1` [MI-2-2]: the cell proliferation result with OCI-AML3 cells [1] (OCI-AML3, dose response, 11 days of MI-2-2 treatment) is recorded as “profound dose-dependent reduction in cell proliferation”. Further, the cell growth inhibition result with HL-60 cells (HL-60 (no NPM1mut or MLL-rearrangement), MI-2-2 dose response) is “only a mild cell growth inhibitory effect at higher doses”. Besides, in assay [2] (setting [9]), the FLT3 transcript levels entry was “substantially and highly significantly suppressed”; the “HOXA, HOXB cluster and MEIS1 gene expression” value is recorded as “significant down regulation”. In addition, in the assay on OCI-AML3 cells [3], the CD11b expression was determined as 72%.

`CC(C)N(CCCNC(=O)Nc1ccc(C(C)(C)C)cc1)C[C@H]1O[C@@H](n2ccc3c(N)ncnc32)[C@H](O)[C@@H]1O` [EPZ4777]: the cell proliferation result in the assay with OCI-AML3 cells [1] (human NPM1mut leukemia cells (OCI-AML3), EPZ4777 10 μM) is listed as “profound reduction”; in the assay with HL-60 cells (HL-60, EPZ4777 10 μM), “unaffected”. Moreover, the FLT3 expression result in [2] (EPZ4777 10 μM, 7 days, all NPM1mut models) is recorded as “dramatic suppression”. The HOX gene expression result in assay [2] (EPZ4777 10 μM, 7 days, human and murine models) is “significant repression”. Further, in assay [4], the “cell proliferation and colony forming potential” value is given as “profound reduction”. For the same compound, the colony forming potential entry in [5] was “unaffected”. In assay [6], the “H3K79me2 marks (immunoblotting and ChIP-PCR)” value was “global and HOXA and HOXB loci specific reduction”. The “WBC counts at time of disease onset within the control group” value in assay [7] (cells treated ex vivo with EPZ4777 for 10 days) is recorded as “significantly lower WBC counts”. Also, the “survival of recipient animals” value in [7] (cells treated ex vivo with EPZ4777 for 10 days, versus vehicle) was “significant survival advantage”. Further, the “survival compared to vehicle control” value in assay [7] is listed as “significantly prolonged survival”. Moreover, the “specificity for DOT1L as compared to other methyl transferases” value on DOT1L is listed as “highly specific for DOT1L”.

As to `Cc1c(CN2CCC(Nc3ncnc4sc(CC(F)(F)F)cc34)CC2)ccc2c1cc(C#N)n2Cc1cn[nH]c1` [MI-503], the “potency compared with MI-2-2 (dose response curves)” value with OCI-AML3 cells [1] (human and murine NPM1mut leukemia cells) was “higher potency”. Further, the “leukemia burden (percentage of bone marrow cells expressing human CD45)” value with OCI-AML3 cells [8] (7 and 12 days) is recorded as “significantly reduced”. Moreover, in the assay with OCI-AML3 cells [8], the “HOXB4, MEIS1 and FLT3 expression in sorted human CD45 positive cells” value is given as “dramatic decrease of expression levels”. Also, the “survival compared to vehicle control” value in [7] is listed as “significantly prolonged survival”.
